Results taken from patent US20220370515A1, “MEDICAL COMPOSITIONS AND THEIR USE IN TREATING PANCREATIC CANCER” (BIOMILLENIA SAS, priority 2019, published 2022).
Entries after “also recorded” stand apart in the source; their conditions may differ.

Key:
Assay type in all cases: cell-based
Malassezia globosa [1] = experiment: Modified disc diffusion assay with living culture (Example 2); details: M. globosa lawn; discs soaked with 15 ul exponentially growing Acetobacter culture or ketoconazole 1 mg/mL in DMSO; 5 days incubation
Procedure: (§1) FIG. 1|Inhibition assays of M. restricta and M. globose by growth of Acetobacter fabarum. Discs were soaked with ketoconazole (1 mg/ml in DMSO) or exponentially growing Acetobacter fabarum culture and placed on agar plates containing a soft layer inoculated with a single culture of the different Malassezia species to be tested. In the upper panel, inhibition of Malassezia globosa is shown; in the bottom panel, Malassezia restricta is shown.
(§2) In order to identify strains whose growth inhibits Malassezia, inhibition assays were performed using a modified disc diffusion method. This method is similar to the classical disk diffusion method that consists in depositing discs imbibed with potential inhibitory substances on Petri plates containing a strain of interest, except that the disks were imbibed with a living culture of an Acetobacter strain. After optimal growth of the strain of interest, growth inhibition can be observed around discs on which the growth of inhibitory bacteria has occurred. Ketoconazole (at 1 mg/mL in DMSO) was used as a positive control for Malassezia growth inhibition. The effect of growth of Acetobacter was tested on Malassezia restricta and Malassezia globosa. All Malassezia strains were streaked from −80° C. stock on Modified Leeming and Notman (MLN) agar plates and incubated 10 days at 30° C. […]

Malassezia restricta [2] = experiment: as above; details: M. restricta lawn; discs soaked with 15 ul exponentially growing Acetobacter culture or ketoconazole 1 mg/mL in DMSO; 5 days incubation
Procedure: as §1, §2

Malassezia globosa [3] = experiment: Disc diffusion inhibition assay (Example 1); details: M. globosa lawn; 6 mm discs soaked with 15 ul supernatant or ketoconazole 1 mg/ml in DMSO; 5 days incubation
Procedure: (§3) FIG. 1|Inhibition assays of the fungicide ketoconazole as positive control for inhibition and Kazachstania unispora supernatant on M. sympodialis, M. furfur, M. restricta and M. globosa. Inhibition assays were performed using the disc diffusion method. Discs were soaked with ketoconazole (1 mg/ml) or K. unispora supernatant and placed on agar plates containing a soft layer inoculated with a single culture of the different Malassezia species to be tested.
(§4) In order to identify strains inhibiting Malassezia growth, inhibition assays were performed using the disc diffusion method. This method consists in disposing discs imbibed with potential inhibitory substances on Petri plates containing a strain of interest. After optimal growth of the strain of interest, growth inhibition can be observed around discs soaked with substances having an inhibitory effect. Potential inhibitory substances tested in this experiment are supernatants obtained after individually culturing a collection of fungal and bacterial strains. After an incubation of 10 days in their optimal broth, each culture was centrifuged and the supernatant was filtered and further stored at −20° C. Ketoconazole, a fungicide, was used as a positive control for Malassezia growth inhibition. It was diluted in dimethyl sulfoxide at 1 mg/ml. The collection of supernantants was tested on the following species from the genus Malassezia: Malassezia restricta, Malassezia globosa, Malassezia furfur and Malassezia sympodialis. All strains were streaked from −80° C. stock on Modified Leeming and Notman (MLN) agar plates and incubated 10 days at 30° C. A 5 ml liquid culture of each species was made in MLN broth and incubated at 30° C. for 2 days for M. furfur and M. sympodialis and 5 days for M. restricta and M. globosa. To allow a lawn growth of the different Malassezia strains tested, Petri plates were prepared as follows: a bottom layer of 50 ml Modified Sabouraud Dextrose (MSD) agar was poured in Petri plates. The soft agar, constituting the top layer, was a mix of 12.5 ml MSD agar, 10.5 ml MLN broth and 2 ml of liquid culture. Plates were allowed to dry for one hour, then, 6 mm-diameter Whatman™ discs were soaked with 15 ul of each thawed supernatants and ketoconazole and placed on the soft agar plate containing the solidified Malassezia monoculture layer. After an incubation of 5 days, inhibition area could be easily observed around discs. […] The strain from which the inhibitory supernatant has been produced was further sequenced using the Sanger technology. The internal transcribed spacer (ITS) of this strain was taxonomically assigned to the yeast Kazachstania unispora (BLASTn, 99% identity, 99% query cover, e-value 0.00).

Malassezia furfur = experiment: Disc diffusion inhibition assay (Example 1); details: M. furfur lawn; 6 mm discs soaked with 15 ul supernatant or ketoconazole 1 mg/ml in DMSO; 5 days incubation
Procedure: as §3, §4

Malassezia sympodialis = experiment: Disc diffusion inhibition assay (Example 1); details: M. sympodialis lawn; 6 mm discs soaked with 15 ul supernatant or ketoconazole 1 mg/ml in DMSO; 5 days incubation
Procedure: as §3, §4

Malassezia restricta [4] = experiment: Disc diffusion inhibition assay (Example 1); details: M. restricta lawn; 6 mm discs soaked with 15 ul supernatant or ketoconazole 1 mg/ml in DMSO; 5 days incubation
Procedure: as §3, §4

SMILES: CC(=O)N1CCN(c2ccc(OCC3COC(Cn4ccnc4)(c4ccc(Cl)cc4Cl)O3)cc2)CC1 (stereo not drawn) [ketoconazole]
- growth inhibition (inhibition halo around disc) (Malassezia globosa [1]): inhibits growth of both Malassezia species tested; also recorded: inhibited both Malassezia restricta and Malassezia globose
- growth inhibition (inhibition halo around disc) (Malassezia restricta [2]): inhibits growth of both Malassezia species tested; also recorded: inhibited both Malassezia restricta and Malassezia globose
- growth inhibition (inhibition halo around disc) (Malassezia globosa [3]): inhibits growth of all 4 Malassezia species tested; also recorded: inhibited all 4 Malassezia species tested
- growth inhibition (inhibition halo around disc) (Malassezia furfur): inhibits growth of all 4 Malassezia species tested; also recorded: inhibited all 4 Malassezia species tested
- growth inhibition (inhibition halo around disc) (Malassezia sympodialis): inhibits growth of all 4 Malassezia species tested; also recorded: inhibited all 4 Malassezia species tested
- growth inhibition (inhibition halo around disc) (Malassezia restricta [4]): inhibits growth of all 4 Malassezia species tested; also recorded: inhibited all 4 Malassezia species tested
